From patent US20130203726A1, “FtsZ INHIBITORS AS POTENTIATORS OF BETA-LACTAM ANTIBIOTICS AGAINST METHICILLIN-RESISTANT STAPHYLOCOCCUS” (priority 2010, published 2013)
Read-outs that look alike come from different tables or passages of the source.

What was measured:
[1] = test system: MRSA COL strains bearing xylose-regulated antisense fragments corresponding to FtsZ, FtsA, or FtsW; assay type: cell-based, Staphylococcus aureus; settings: 50 mM xylose (antisense induced) versus no xylose, FtsZ-AS
Experimental: See Forsyth et al., 2002, Mol. Microbial 43:1387-1400 for details concerning plasmid and antisense interference construction. Strains were grown overnight in Luria Bertani (LB) Miller broth at 37° C. containing 34 μg/ml chloramphenicol. Assay plates were prepared by seeding 10^7 cells/ml of each culture into 48° C. cooled LB Miller agar containing 34 μg/ml chloramphenicol. To partially repress FtsZ expression, 50 mM xylose was supplemented to plates. This antisense inducer concentration modestly impairs growth of each strain equally, reflecting a 20% inhibitory growth concentration (i.e., xylose IC20˜50 mM).
The following antibiotics were then spotted on the surface of the plates: carbapenems, imipenem (12.8 μg) and ertapenem (51.2 μg); cephalosporins, cefepime (102.4 μg), ceftazidime (102.4 μg), and ceftriaxone (102.4 μg); and the β-lactam piperacillin (combined with the […] in a 8:1 molar ratio (25.6 μg). As a control, MRSA COL was identically tested but under conditions where no xylose was supplemented into the medium (i.e., non-repressed FtsZ) as well as by identically processing the MRSA COL strain transformed with pEPSA5 but lacking an antisense fragment (data not shown). As a control for the specificity of ftsZ, ftsA, and ftsW mutant susceptibility to β-lactams, the non-β-lactam cell wall antibiotic, vancomycin (0.8 μg) was additionally spotted. Plates were then incubated at 37° C. for 16 h and photographed.
The effect FtsZ, FtsA, or FtsW imparts on MRSA susceptibility to the above antibiotics was determined by comparing their zone of inhibition between plates supplemented with antisense inducer (50 mM xylose) versus those without xylose. Differential antibiotic zones of inhibition between FtsZ, FtsA, and FtsW antisense bearing strains grown under xylose induced versus non-induced conditions reflect Fts gene-dependent restoration of MRSA COL susceptibility to β-lactams.

MRSA COL [2] = experiment: Checkerboard assay (MIC, FIC index) against MRSA; assay type: cell-based, S. aureus
Description: (§1) The checkerboard method is the technique most frequently used to assess antimicrobial combinations in vitro. See Antibiotics in Laboratory Medicine Victor Lorian ed. 2005. The term. checkerboard refers to the pattern of microtiter wells formed by multiple dilutions of the two antimicrobials being tested in concentrations equal to, above and below their minimal inhibitory concentrations (MICs) against the organisms being tested. The checkerboard consists of columns in which each well contains the same amount of Drug A being two-fold diluted along the x-axis and rows in which each well contains the same amount of Drug B being two-fold diluted on the Y-axis. The result is that each well contains a unique combination of the two drugs being tested. Also tested is the antimicrobial activity of each agent singly.
(§2) The 96 well U-bottom polypropylene microtiter plates (Fisher Scientific, Pittsburgh, Pa.) were inoculated with 90 μl of bacterial cells (grown in Tryptic Soy Broth at 37° C. for 18 hours with rotary shaking) diluted in cation-adjusted Mueller Hinton broth to a final concentration of ˜5.5×10^5 CFU/mL.
(§3) β-lactam antibiotics were two-fold serially diluted along the Y-axis of 96-well U-bottom microtiter dishes (Fisher Scientific, Pittsburgh, Pa.) in microbiological growth media [brain heart infusion broth (BBL)]. FtsZ inhibitors were serially diluted along the X-axis of 96-well U-bottom microtiter dishes in microbiological growth media. The plates were inoculated with bacterial cells (grown in Trypticase Soy Broth at 37° C. for 18 hours with rotary shaking) to a final concentration of ˜5×10^5 CFU/mL. Test plates were incubated stationery at 37° C. for 22-24 hours.
(§4) The FIC index is most commonly used to report results of studies with antimicrobial combinations. In this method, the FIC for each drug is derived by dividing the concentration of that drug necessary to inhibit growth in a given combination by the MIC of the test organism for that drug alone. The FTC index (FICI) is then calculated by summing the separate FICs of the drugs present in that test well. Synergism is defined as an FTC index of 0.5.

MRSE CLB 26329 = experiment: Checkerboard assay (MIC, FIC index) against MRSE; assay type: cell-based, S. epidermidis
Description: as §1, §2, §3, §4

MRSA COL [3] = experiment: MRSA deep thigh infection model in neutropenic mice; assay type: in vivo, Staphylococcus aureus; settings: for reduction of bacterial burden per thigh: 24 hr
Experimental: Female mice (20-25 g) were rendered neutropenic via intraperitoneal injection of cyclophosphamide (Mead Johnson Pharmaceuticals) four days (150 mg/kg) and one day (100 mg/kg) prior to experimental infection. Neutropenic mice were infected on Day 0 via intramuscular thigh injection of 0.1 ml containing ˜1-2×10^6 CPU Staphylococcus aureus (strain B, MRSA COL) from freshly grown culture broth. Two hours post thigh infection, mice were randomized and groups were administered increasing doses of PC190723 (50, 100, 200 mg/kg orally (p.o.), t.i.d ([…]); equivalent to 150, 300, and 600 mg/kg/24 hr) in the absence or presence of imipenem/cilastatin (10 mg/kg/50 mg/kg subcutaneously (s.c.), t.i.d. ([…]); equivalent to 30 mg/kg/24 hr and 150 mg/ kg/24 hr). Assay control groups included non-infected, vehicle-treated mice, vehicle-treated baseline infected (t=0 hr) mice, vehicle-treated 24 hr infected (t=24 hr) mice, and linezolid ((Zyvox IV solution, Bell Medical; 40 mg/kg orally (p.o.), b.i.d. ([…]) equivalent to 80 mg/kg/24 hr).
Twenty four hours post the initiation of therapy, mice were sacrificed, thighs aseptically removed, placed in 4 ml sterile phosphate buffered saline (Fisher Scientific), and homogenized using a Polytron (Brinkmann Instruments). Homogenates were serially 100-fold diluted in 9.9 ml sterile saline and plated on Mannitol Salt Agar plates. Plates were incubated at 35° C. for 48 hours and colony forming units (CFU) of bacteria remaining per thigh were determined.

[4] = FtsZ inhibitor in combination with amoxicillin, MRSA COL
[5] = FtsZ inhibitor in combination with cefazolin, MRSA COL
[6] = FtsZ inhibitor in combination with cefdinir, MRSA COL
[7] = FtsZ inhibitor in combination with cefazolin
[8] = FtsZ inhibitor in combination with cefepime, lowest achievable for PC190723

C/C=C/C/C=C/CCC(=O)[C@H]1O[C@H]1C(N)=O [cerulenin]
change of susceptibility (zone of inhibition) on partial genetic inactivation of FtsZ, FtsA or FtsW [1]: none of the FtsZ-AS, FtsA-AS, or FtsW-AS strains demonstrated altered hypersensitivity

NC(=O)c1c(F)ccc(OCc2nc3cc(Cl)cnc3s2)c1F [PC190723]
lower levels of imipenem required to inhibit growth (MRSA COL [2]; FtsZ inhibitor at FIC≦0.25 combined with imipenem, MRSA): 16 fold | FICI (MRSA COL [2]; [4]): 0.53 | FICI (MRSA COL [2]; [5]): 0.38 | FICI (MRSA COL [2]; [6]): 0.31 | FICI (MRSA COL [2]; FtsZ inhibitor in combination with ertapenem at its clinical breakpoint (8 μg/ml), MRSA): 0.5 | FICI (MRSA COL [2]; FtsZ inhibitor in combination with imipenem at its clinical breakpoint (4 μg/ml), MRSA): 0.31 | FIC of the FtsZ inhibitor at which synergy with β-lactams was shown (MRSA COL [2]; MRSA): 0.25 | MIC (MRSA COL [2]; Staphylococcus aureus, agent alone, MRSA, read-out: minimal inhibitory concentration (MIC)): 1 mg/L | MIC (MRSA COL [2]; agent alone, MRSA, FIG. 5 legend, unit not given): 1.0 | reduction of the effective inhibitory concentration of amoxicillin (MRSA COL [2]; combined with PC190723 at FIC=0.5, MRSA): ~32 fold | FIC of the FtsZ inhibitor at which synergy with β-lactams was shown (MRSE CLB 26329): 0.25 | lower levels of imipenem required to inhibit growth (MRSE CLB 26329; FtsZ inhibitor at FIC≦0.25 combined with imipenem): 32 fold | FICI (MRSE CLB 26329; [7]): 0.31 | FICI (MRSE CLB 26329; [8]): 0.28 | FICI (MRSE CLB 26329; FtsZ inhibitor in combination with ertapenem at its clinical breakpoint (8 μg/ml)): 0.5 | FICI (MRSE CLB 26329; FtsZ inhibitor in combination with imipenem at its clinical breakpoint (4 μg/ml)): 0.31 | MIC (MRSE CLB 26329; Staphylococcus epidermidis, agent alone, read-out: minimal inhibitory concentration (MIC)): 1 mg/L | MIC (MRSE CLB 26329; agent alone, FIG. 5 legend, unit not given): 1.0 | antibacterial activity compared with linezolid (MRSA COL [3]; 10 mg/kg imipenem + 200 mg/kg PC190723, linezolid 40 mg/kg p.o. b.i.d.): approaching linezolid-like antibacterial activity | reduction of bacterial burden per thigh (MRSA COL [3]; PC190723 50 mg/kg p.o. t.i.d. + imipenem 10 mg/kg s.c. t.i.d., FIG. 7A): −0.4 Log 10 CFU | reduction of bacterial burden per thigh (MRSA COL [3]; PC190723 100 mg/kg p.o. t.i.d. + imipenem 10 mg/kg s.c. t.i.d., FIG. 7A): −1.2 Log 10 CFU | reduction of bacterial burden per thigh (MRSA COL [3]; PC190723 100 mg/kg p.o. t.i.d. + imipenem 10 mg/kg s.c. t.i.d., FIG. 7B): −1.9 Log 10 CFU | reduction of bacterial burden per thigh (MRSA COL [3]; PC190723 200 mg/kg p.o. t.i.d. + imipenem 10 mg/kg s.c. t.i.d., FIG. 7A): −3.1 Log 10 CFU | reduction of bacterial burden per thigh (MRSA COL [3]; PC190723 200 mg/kg p.o. t.i.d. + imipenem 10 mg/kg s.c. t.i.d., FIG. 7B): −2.6 Log 10 CFU | effect on MRSA COL bacterial burden in the thighs (MRSA COL [3]; monotherapy over 24 hr, imipenem 10 mg/kg s.c. t.i.d. or PC190723 50, 100, 200 mg/kg p.o. t.i.d., neutropenic mice): did not significantly alter

CN[C@H](CC(C)C)C(=O)N[C@H]1C(=O)N[C@@H](CC(N)=O)C(=O)N[C@H]2C(=O)N[C@H]3C(=O)N[C@H](C(=O)N[C@H](C(=O)O)c4cc(O)cc(O)c4-c4cc3ccc4O)[C@H](O)c3ccc(c(Cl)c3)Oc3cc2cc(c3O[C@@H]2O[C@H](CO)[C@@H](O)[C@H](O)[C@H]2O[C@H]2C[C@](C)(N)[C@H](O)[C@H](C)O2)Oc2ccc(cc2Cl)[C@H]1O [vancomycin]
change of susceptibility (zone of inhibition) on partial genetic inactivation of FtsZ, FtsA or FtsW [1]: none of the FtsZ-AS, FtsA-AS, or FtsW-AS strains demonstrated altered hypersensitivity

CC[C@H]1OC(=O)[C@H](C)[C@@H](O[C@H]2C[C@@](C)(OC)[C@@H](O)[C@H](C)O2)[C@H](C)[C@@H](O[C@@H]2O[C@H](C)C[C@H](N(C)C)[C@H]2O)[C@](C)(O)C[C@@H](C)CN(C)[C@H](C)[C@@H](O)[C@]1(C)O [azithromycin]
change of susceptibility (zone of inhibition) on partial genetic inactivation of FtsZ, FtsA or FtsW [1]: none of the FtsZ-AS, FtsA-AS, or FtsW-AS strains demonstrated altered hypersensitivity

Zantrin Z3
lower levels of cefazolin required to inhibit growth (MRSA COL [2]; FtsZ inhibitor at FIC≦0.25 combined with cefazolin, MRSA): 16 fold | FICI (MRSA COL [2]; [4]): no synergy was detected | FICI (MRSA COL [2]; [5]): 0.25 | FICI (MRSA COL [2]; [6]): 0.5 | FICI (MRSA COL [2]; FtsZ inhibitor in combination with cefepime, MRSA COL): 0.25 | FICI (MRSA COL [2]; FtsZ inhibitor in combination with ceftazidime, MRSA COL): 0.28 | minimal inhibitory concentration (MIC) (MRSA COL [2]; agent alone, MRSA): 8−16.0 μg/ml | lower levels of cefazolin required to inhibit growth (MRSE CLB 26329; FtsZ inhibitor at FIC≦0.25 combined with cefazolin): 16 fold | FICI (MRSE CLB 26329; FtsZ inhibitor in combination with amoxicillin): 0.28 | FICI (MRSE CLB 26329; [7]): 0.31 | FICI (MRSE CLB 26329; FtsZ inhibitor in combination with cefdinir): 0.27 | FICI (MRSE CLB 26329; [8]): 0.16 | FICI (MRSE CLB 26329; FtsZ inhibitor in combination with ceftazidime): 0.50 | minimal inhibitory concentration (MIC) (MRSE CLB 26329; agent alone): 8−16.0 μg/ml | fraction of normal amoxicillin concentration needed to display MRSE efficacy (MRSE CLB 26329; amoxicillin paired with Z3): 1/16 | reduced cefdinir concentration to restore anti-MRSE activity (MRSE CLB 26329; cefdinir paired with Z3): 64 fold

COc1cc(Cc2cnc(N)nc2N)cc(OC)c1OC [trimethoprim]
change of susceptibility (zone of inhibition) on partial genetic inactivation of FtsZ, FtsA or FtsW [1]: none of the FtsZ-AS, FtsA-AS, or FtsW-AS strains demonstrated altered hypersensitivity

CC(=O)NC[C@H]1CN(c2ccc(N3CCOCC3)c(F)c2)C(=O)O1 [linezolid]
change of susceptibility (zone of inhibition) on partial genetic inactivation of FtsZ, FtsA or FtsW [1]: none of the FtsZ-AS, FtsA-AS, or FtsW-AS strains demonstrated altered hypersensitivity

O=C(O)c1cn(C2CC2)c2cc(N3CCNCC3)c(F)cc2c1=O [ciprofloxacin]
change of susceptibility (zone of inhibition) on partial genetic inactivation of FtsZ, FtsA or FtsW [1]: none of the FtsZ-AS, FtsA-AS, or FtsW-AS strains demonstrated altered hypersensitivity
